From ChEMBL document CHEMBL2169756, “Recent results in protein kinase inhibition for tropical diseases” (Bioorg Med Chem Lett, 2012)
≈ marks a conversion by molar mass, not a printed value.

Key:
[1] = target: T1, Cdc2-related kinase (Leishmania major, UniProt O96526); experiment: Inhibition of Leishmania major CRK3 expressed in Escherichia coli BL21 (DE3) using 5FAM-GGGRSPGRRRRK-OH as substrate after 60 mins by IMAP assay
T1 sequence (O96526 whole entry): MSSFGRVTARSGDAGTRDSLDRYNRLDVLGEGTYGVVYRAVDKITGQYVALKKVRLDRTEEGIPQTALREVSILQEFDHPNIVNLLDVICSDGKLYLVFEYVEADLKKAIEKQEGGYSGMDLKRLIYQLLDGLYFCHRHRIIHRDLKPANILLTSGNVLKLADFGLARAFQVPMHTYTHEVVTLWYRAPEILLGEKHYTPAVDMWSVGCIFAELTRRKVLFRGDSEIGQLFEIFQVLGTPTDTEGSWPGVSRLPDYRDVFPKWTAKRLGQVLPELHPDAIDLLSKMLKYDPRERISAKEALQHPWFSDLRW

[2] = Inhibition of Plasmodium falciparum MPK
[3] = test system: Toxoplasma gondii; experiment: Antiprotozoal activity against Toxoplasma gondii expressing low level of ROP18 infected in human HFF cells; format: functional, organism-based
[4] = target: Cyclin-dependent kinase 7 (Homo sapiens, UniProt P50613); experiment: Inhibition of human CDK7
Chain of Cyclin-dependent kinase 7 (P50613 whole entry): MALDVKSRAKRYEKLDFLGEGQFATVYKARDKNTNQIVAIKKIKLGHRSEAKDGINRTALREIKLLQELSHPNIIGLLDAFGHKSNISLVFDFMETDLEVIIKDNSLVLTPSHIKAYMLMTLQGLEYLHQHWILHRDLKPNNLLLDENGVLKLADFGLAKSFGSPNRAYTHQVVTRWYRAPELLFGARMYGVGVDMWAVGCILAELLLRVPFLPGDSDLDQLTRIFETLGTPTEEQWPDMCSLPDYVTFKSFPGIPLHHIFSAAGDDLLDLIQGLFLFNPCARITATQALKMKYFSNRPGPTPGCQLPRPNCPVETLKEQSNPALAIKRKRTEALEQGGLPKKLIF

[5] = test system: Plasmodium falciparum; experiment: Antimalarial activity against Plasmodium falciparum; format: functional, organism-based
[6] = target: Cyclin-dependent kinase 6 (Homo sapiens, UniProt Q00534); experiment: Inhibition of human CDK6
Chain of Cyclin-dependent kinase 6 (Q00534 whole entry): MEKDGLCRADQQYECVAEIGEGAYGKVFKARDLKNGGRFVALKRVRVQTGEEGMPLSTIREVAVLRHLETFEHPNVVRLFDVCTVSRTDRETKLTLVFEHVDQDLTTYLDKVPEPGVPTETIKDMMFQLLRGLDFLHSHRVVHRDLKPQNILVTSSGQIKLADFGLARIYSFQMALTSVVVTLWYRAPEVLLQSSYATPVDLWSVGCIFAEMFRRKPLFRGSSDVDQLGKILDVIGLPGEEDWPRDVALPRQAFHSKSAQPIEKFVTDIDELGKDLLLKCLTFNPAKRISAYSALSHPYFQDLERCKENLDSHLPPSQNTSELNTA

[7] = target: Cyclin-dependent kinase 2 (Homo sapiens, UniProt P24941); experiment: Inhibition of human CDK2
[8] = target: Cyclin-dependent kinase 1 (Homo sapiens, UniProt P06493); experiment: Inhibition of human CDK1
Chain of Cyclin-dependent kinase 1 (P06493 whole entry): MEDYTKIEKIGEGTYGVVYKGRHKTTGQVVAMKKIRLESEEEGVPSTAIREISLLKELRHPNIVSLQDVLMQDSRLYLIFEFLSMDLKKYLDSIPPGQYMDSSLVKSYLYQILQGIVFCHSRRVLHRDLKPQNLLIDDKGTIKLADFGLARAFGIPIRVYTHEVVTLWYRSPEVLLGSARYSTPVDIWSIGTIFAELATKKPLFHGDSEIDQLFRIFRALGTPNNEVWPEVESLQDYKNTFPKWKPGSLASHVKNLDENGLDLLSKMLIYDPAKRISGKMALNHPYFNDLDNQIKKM

[9] = Selectivity ratio of cytotoxicity for […] to IC50 for Mycobacterium tuberculosis H37Rv; format: cell-based
[10] = test system: Mycobacterium tuberculosis; experiment: Antitubercular activity against Mycobacterium tuberculosis H37Rv by high throughput assay; format: functional
[11] = target: T2, Calcium-dependent protein kinase 4 (Plasmodium falciparum (isolate 3D7), UniProt Q8IBS5); experiment: Inhibition of CDPK4 in Plasmodium falciparum 3D7 microgametes
T2 sequence (Q8IBS5 whole entry): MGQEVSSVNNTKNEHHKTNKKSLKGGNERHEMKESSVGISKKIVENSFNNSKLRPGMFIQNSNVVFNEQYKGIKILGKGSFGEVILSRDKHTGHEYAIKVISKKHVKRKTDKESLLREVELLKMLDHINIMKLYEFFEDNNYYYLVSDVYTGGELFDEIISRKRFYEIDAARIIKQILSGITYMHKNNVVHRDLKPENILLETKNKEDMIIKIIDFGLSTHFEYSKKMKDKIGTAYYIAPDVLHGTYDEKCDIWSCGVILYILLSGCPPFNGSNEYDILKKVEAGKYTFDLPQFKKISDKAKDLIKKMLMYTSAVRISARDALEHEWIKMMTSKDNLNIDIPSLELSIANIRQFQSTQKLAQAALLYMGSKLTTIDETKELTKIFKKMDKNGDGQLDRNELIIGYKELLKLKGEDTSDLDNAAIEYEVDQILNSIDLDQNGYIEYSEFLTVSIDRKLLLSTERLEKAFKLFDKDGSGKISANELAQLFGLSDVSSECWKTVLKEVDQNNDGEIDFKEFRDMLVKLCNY

[12] = test system: Trypanosoma brucei brucei; experiment: Antitrypanosomal activity against bloodstream form of Trypanosoma brucei brucei 427 after 72 hrs by resazurin microplate assay; format: functional, organism-based; conditions: Trypanosoma brucei, 427, 72 h
[13] = test system: Leishmania donovani; experiment: Antileishmanial activity against Leishmania donovani MHOM/SD/62/1SCL2D amastigotes after 72 hrs by resazurin reduction assay; format: functional, organism-based
[14] = test system: Trypanosoma brucei; experiment: Antitrypanosomal activity against Trypanosoma brucei infected in Swiss Webster mouse assessed as cure rate at 20 mg/kg, ip bid administered 4 days post infection; format: functional; conditions: route intraperitoneal
[15] = test system: Leishmania donovani; experiment: Antileishmanial activity against Leishmania donovani MHOM/SD/62/1SCL2D promastigotes after 72 hrs by resazurin reduction assay; format: functional, organism-based
[16] = test system: Trypanosoma brucei brucei; experiment: Antitrypanosomal activity against procyclic Trypanosoma brucei brucei 29-13 after 72 hrs by resazurin microplate assay; format: functional, organism-based; conditions: 29-13, 72 h
[17] = target: cGMP-dependent protein kinase (Plasmodium falciparum, UniProt W7JX98); experiment: Inhibition of PKG in Plasmodium falciparum 3D7 microgametes
Chain of cGMP-dependent protein kinase (W7JX98 whole entry): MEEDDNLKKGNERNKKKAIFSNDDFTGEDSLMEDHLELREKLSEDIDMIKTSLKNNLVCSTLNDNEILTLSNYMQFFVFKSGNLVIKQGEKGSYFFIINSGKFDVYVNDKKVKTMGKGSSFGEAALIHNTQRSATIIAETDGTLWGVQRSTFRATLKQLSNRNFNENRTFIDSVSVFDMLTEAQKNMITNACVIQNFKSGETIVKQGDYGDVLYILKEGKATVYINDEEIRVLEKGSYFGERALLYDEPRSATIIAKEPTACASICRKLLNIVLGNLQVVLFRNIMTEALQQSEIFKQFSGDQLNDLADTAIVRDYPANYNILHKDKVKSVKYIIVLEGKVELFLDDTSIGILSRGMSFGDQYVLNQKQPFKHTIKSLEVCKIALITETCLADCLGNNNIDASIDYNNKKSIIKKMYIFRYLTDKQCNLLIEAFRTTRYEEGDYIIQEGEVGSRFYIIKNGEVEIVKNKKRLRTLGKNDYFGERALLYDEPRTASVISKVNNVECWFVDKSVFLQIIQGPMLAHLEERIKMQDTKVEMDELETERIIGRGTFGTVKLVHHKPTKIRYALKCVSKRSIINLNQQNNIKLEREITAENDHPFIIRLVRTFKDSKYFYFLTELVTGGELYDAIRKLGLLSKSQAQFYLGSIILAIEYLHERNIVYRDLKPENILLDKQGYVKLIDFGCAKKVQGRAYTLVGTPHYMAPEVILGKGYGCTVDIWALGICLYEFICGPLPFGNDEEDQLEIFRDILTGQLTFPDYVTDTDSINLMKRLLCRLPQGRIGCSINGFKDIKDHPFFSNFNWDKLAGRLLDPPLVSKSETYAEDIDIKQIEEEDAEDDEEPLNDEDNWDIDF

[18] = test system: Leishmania major; experiment: Antileishmanial activity against Leishmania major promastigotes; format: functional, organism-based
[19] = target: T1, Cdc2-related kinase; experiment: Inhibition of Leishmania major CRK3 expressed in Escherichia coli BL21 (DE3) after 30 mins by autoradiography

Oc1ccccc1-c1nc(NCc2cccnc2)c2ccccc2n1
IC50 [1]: 11 µM

Cc1cccc(-c2ccc3nc(NC(=O)C4CCCCC4)nn3c2)c1
IC50 [1]: 0.06 µM

Cc1ccc(N(C(=O)CCl)S(=O)(=O)c2cc(Cl)sc2Cl)cc1
IC50 [2]: 127 µM

Cc1cc(C)cc(-c2ccc3nc(NC(=O)C4CCCCCC4)n(C)c3c2)c1
IC50 [1]: 0.005 µM

Cn1c(=O)c(/C=C/c2ccc3c(c2)OCO3)nc2ccccc21
IC50 [3]: 0.002 µM

O=C(CBr)N(c1ccccc1)S(=O)(=O)c1cc(Cl)sc1Cl
IC50 [2]: 0.6 µM | IC50 [4]: > 20 µM | IC50 [5]: 17 µM | IC50 [6]: > 20 µM | IC50 [7]: > 20 µM | IC50 [8]: > 20 µM

O=S(=O)(Nc1ccccc1)c1cc(Cl)sc1Cl
IC50 [2]: 15 µM

Cc1ccc(NC(=O)Nc2ccnc(-c3cccnc3)n2)cc1
IC50 [1]: 1.5 µM

O=C(OCn1nnc2ccccc2c1=O)c1ccccc1
selectivity ratio [9]: > 28 | IC90 [10]: 1.4 µg/mL (≈ 4.98 µM)

CC(C)(C)n1nc(-c2ccc3ccccc3c2)c2c(N)ncnc21
IC50 [11]: 0.177 µM

CCN(Cc1ccc(/C=C2\C(=O)Nc3ccccc32)o1)S(C)(=O)=O
IC50 [1]: 0.51 µM

COc1ccccc1C(=O)c1cnc(NC2CCN(C(=O)Nc3ccccc3)CC2)nc1N
IC50 [12]: 0.07 µM | IC50 [13]: 1 µM | Activity [14]: 100% | IC50 [15]: 1 µM | IC50 [16]: 0.07 µM

O=C(Nc1nnc(-c2ccco2)o1)c1ccc(Oc2ccccc2)cc1
selectivity ratio [9]: > 75 | IC90 [10]: < 0.2 µg/mL

COc1ccccc1-c1cnn2c(Nc3cccc(Cl)c3)cc(C)nc12
selectivity ratio [9]: 19 | IC90 [10]: 1.7 µg/mL (≈ 4.66 µM)

CC(=O)c1cccc(-c2cnn3ccc(Nc4ccc(N5CCOCC5)cc4)nc23)c1
IC50 [1]: 0.26 µM

COc1cc(-c2ccc3nc(NC(=O)C4CCCCC4)nn3c2)ccc1O
IC50 [1]: 0.24 µM

CC(C)(C)c1ccc(C(=O)Nc2nnc(-c3cccnc3)o2)cc1
selectivity ratio [9]: > 48 | IC90 [10]: 0.84 µg/mL (≈ 2.61 µM)

Cc1cc(C)cc(-c2ccc3nc(NC(=O)C4CCCCC4)nn3c2)c1
IC50 [1]: 0.02 µM

CN1CCC(c2cc(-c3ccncc3)c(-c3ccc(F)cc3)[nH]2)CC1
IC50 [17]: 0.008 µM

COc1ccc(-n2nnc3c(N4CCCC(O)C4)nc(CC4CCCCC4)nc32)cc1 (centres undefined)
IC50 [18]: 8.6 µM | IC50 [19]: 5.3 µM
